Test results as given in the NIST ThermoML archive (doi:10.1016/j.jct.2017.08.004).

Tests used:
[1] = for molar entropy: 101.33 kPa
[2] = Molar enthalpy of transition or fusion; conditions: Crystal; DSC

OC[C@@H](O)[C@@H](O)[C@H](O)[C@H](O)CO [D-mannitol]
[1]
Conditions | molar entropy [J/K/mol]
1 K, Crystal, relaxation calorimetry | 0.000631
2 K, Crystal, relaxation calorimetry | 0.002978
3 K, Crystal, relaxation calorimetry | 0.008828
4 K, Crystal, relaxation calorimetry | 0.02011
5 K, Crystal, relaxation calorimetry | 0.03893
6 K, Crystal, relaxation calorimetry | 0.06761
7 K, Crystal, relaxation calorimetry | 0.1087
8 K, Crystal, relaxation calorimetry | 0.165
9 K, Crystal, relaxation calorimetry | 0.2395
10 K, Crystal, relaxation calorimetry | 0.3351
15 K, Crystal, relaxation calorimetry | 1.202
20 K, Crystal, relaxation calorimetry | 2.796
25 K, Crystal, relaxation calorimetry | 5.087
30 K, Crystal, relaxation calorimetry | 7.955
35 K, Crystal, relaxation calorimetry | 11.26
40 K, Crystal, relaxation calorimetry | 14.89
45 K, Crystal, relaxation calorimetry | 18.76
50 K, Crystal, relaxation calorimetry | 22.8
55 K, Crystal, relaxation calorimetry | 26.97
60 K, Crystal, relaxation calorimetry | 31.23
65 K, Crystal, relaxation calorimetry | 35.57
70 K, Crystal, relaxation calorimetry | 39.94
75 K, Crystal, relaxation calorimetry | 44.34
80 K, Crystal, relaxation calorimetry | 48.76
85 K, Crystal, relaxation calorimetry | 53.19
90 K, Crystal, relaxation calorimetry | 57.61
95 K, Crystal, relaxation calorimetry | 62.02
100 K, Crystal, relaxation calorimetry | 66.42
110 K, Crystal, relaxation calorimetry | 75.17
120 K, Crystal, relaxation calorimetry | 83.84
130 K, Crystal, relaxation calorimetry | 92.42
140 K, Crystal, relaxation calorimetry | 100.91
150 K, Crystal, relaxation calorimetry | 109.31
160 K, Crystal, relaxation calorimetry | 117.62
170 K, Crystal, relaxation calorimetry | 125.86
180 K, Crystal, relaxation calorimetry | 134.02
190 K, Crystal, relaxation calorimetry | 142.11
200 K, Crystal, relaxation calorimetry | 150.14
210 K, Crystal, relaxation calorimetry | 158.13
220 K, Crystal, relaxation calorimetry | 166.06
230 K, Crystal, relaxation calorimetry | 173.95
240 K, Crystal, relaxation calorimetry | 181.8
250 K, Crystal, relaxation calorimetry | 189.63
260 K, Crystal, relaxation calorimetry | 197.43
270 K, Crystal, relaxation calorimetry | 205.2
273.15 K, Crystal, relaxation calorimetry | 207.65
280 K, Crystal, relaxation calorimetry | 212.96
290 K, Crystal, relaxation calorimetry | 220.71
298.15 K, Crystal, relaxation calorimetry | 227.01
300 K, Crystal, relaxation calorimetry | 228.44
305 K, Crystal, Small sample (50 mg) DSC | 232.31
310 K, Crystal, Small sample (50 mg) DSC | 236.19
315 K, Crystal, Small sample (50 mg) DSC | 240.08
320 K, Crystal, Small sample (50 mg) DSC | 243.99
325 K, Crystal, Small sample (50 mg) DSC | 247.9
330 K, Crystal, Small sample (50 mg) DSC | 251.82
335 K, Crystal, Small sample (50 mg) DSC | 255.74
340 K, Crystal, Small sample (50 mg) DSC | 259.67
345 K, Crystal, Small sample (50 mg) DSC | 263.61
350 K, Crystal, Small sample (50 mg) DSC | 267.55
355 K, Crystal, Small sample (50 mg) DSC | 271.49
360 K, Crystal, Small sample (50 mg) DSC | 275.43
365 K, Crystal, Small sample (50 mg) DSC | 279.37
370 K, Crystal, Small sample (50 mg) DSC | 283.31
375 K, Crystal, Small sample (50 mg) DSC | 287.25
380 K, Crystal, Small sample (50 mg) DSC | 291.19
385 K, Crystal, Small sample (50 mg) DSC | 295.12
390 K, Crystal, Small sample (50 mg) DSC | 299.04
395 K, Crystal, Small sample (50 mg) DSC | 302.96
400 K, Crystal, Small sample (50 mg) DSC | 306.87
405 K, Crystal, Small sample (50 mg) DSC | 310.78
410 K, Crystal, Small sample (50 mg) DSC | 314.68
415 K, Crystal, Small sample (50 mg) DSC | 318.58
420 K, Crystal, Small sample (50 mg) DSC | 322.47
425 K, Crystal, Small sample (50 mg) DSC | 326.38
430 K, Crystal, Small sample (50 mg) DSC | 330.31
435 K, Crystal, Small sample (50 mg) DSC | 334.63
450 K, Liquid, Small sample (50 mg) DSC | 463.49
455 K, Liquid, Small sample (50 mg) DSC | 469.61
460 K, Liquid, Small sample (50 mg) DSC | 475.21
465 K, Liquid, Small sample (50 mg) DSC | 480.73
470 K, Liquid, Small sample (50 mg) DSC | 486.2
475 K, Liquid, Small sample (50 mg) DSC | 491.61
480 K, Liquid, Small sample (50 mg) DSC | 496.96
485 K, Liquid, Small sample (50 mg) DSC | 502.25
490 K, Liquid, Small sample (50 mg) DSC | 507.49

Conditions | Normal melting temperature [°C]
[1], Crystal, DTA | 167.47

Conditions | Molar enthalpy of transition or fusion [kcal/mol]
[2] | 13.3
